From PubChem BioAssay AID2060885 (Molecular Pharmacology Branch, DTP, NCI, 2025)

Test system: NCI-H23 complex spheroids with HUVEC/MSC, viability
Assay: Anticancer human tumor NCI-H23 cell line growth inhibition [RAS];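 further: spheroids exposed to compound for 7 days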;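 on viability, T/C: 100% = DMSO vehicle control viability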
Settings: for IC50: curve of first compound; for viability, T/C: stronger effect = lower value
Summary of the method: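 Agents were tested in combination matrices in half-log decrements from a top concentration at or near clinical Cmax (10 microM if undetermined). Targets were multi-cell spheroids of tumour lines plus HUVEC and MSC stromal cells.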

[1] = second compound 0.000949 µM, first compound 0.00316 µM
[2] = second compound 0.000949 µM, first compound 0.01 µM
[3] = second compound 0.000949 µM, first compound 0.0316 µM
[4] = second compound 0.000949 µM, first compound 0.1 µM
[5] = second compound 0.000949 µM, first compound 0.316 µM
[6] = second compound 0.000949 µM, first compound 1 µM
[7] = second compound 0.003 µM, first compound 0.00316 µM
[8] = second compound 0.003 µM, first compound 0.01 µM
[9] = second compound 0.003 µM, first compound 0.0316 µM
[10] = second compound 0.003 µM, first compound 0.1 µM
[11] = second compound 0.003 µM, first compound 0.316 µM
[12] = second compound 0.003 µM, first compound 1 µM
[13] = second compound 0.00949 µM, first compound 0.00316 µM
[14] = second compound 0.00949 µM, first compound 0.01 µM
[15] = second compound 0.00949 µM, first compound 0.0316 µM
[16] = second compound 0.00949 µM, first compound 0.1 µM
[17] = second compound 0.00949 µM, first compound 0.316 µM
[18] = second compound 0.00949 µM, first compound 1 µM
[19] = second compound 0.03 µM, first compound 0.00316 µM
[20] = second compound 0.03 µM, first compound 0.01 µM
[21] = second compound 0.03 µM, first compound 0.0316 µM
[22] = second compound 0.03 µM, first compound 0.1 µM
[23] = second compound 0.03 µM, first compound 0.316 µM
[24] = second compound 0.03 µM, first compound 1 µM
[25] = second compound 0.0949 µM, first compound 0.00316 µM
[26] = second compound 0.0949 µM, first compound 0.01 µM
[27] = second compound 0.0949 µM, first compound 0.0316 µM
[28] = second compound 0.0949 µM, first compound 0.1 µM
[29] = second compound 0.0949 µM, first compound 0.316 µM
[30] = second compound 0.0949 µM, first compound 1 µM
[31] = second compound 0.3 µM, first compound 0.00316 µM
[32] = second compound 0.3 µM, first compound 0.01 µM
[33] = second compound 0.3 µM, first compound 0.0316 µM
[34] = second compound 0.3 µM, first compound 0.1 µM
[35] = second compound 0.3 µM, first compound 0.316 µM
[36] = second compound 0.3 µM, first compound 1 µM
[37] = second compound 0.000949 µM, first compound 3.16 µM
[38] = second compound 0.000949 µM, first compound 10 µM
[39] = second compound 0.003 µM, first compound 3.16 µM
[40] = second compound 0.003 µM, first compound 10 µM
[41] = second compound 0.00949 µM, first compound 3.16 µM
[42] = second compound 0.00949 µM, first compound 10 µM
[43] = second compound 0.03 µM, first compound 3.16 µM
[44] = second compound 0.03 µM, first compound 10 µM
[45] = second compound 0.0949 µM, first compound 3.16 µM
[46] = second compound 0.0949 µM, first compound 10 µM
[47] = second compound 0.3 µM, first compound 3.16 µM
[48] = second compound 0.3 µM, first compound 10 µM

For `C=CC(=O)Nc1cc(Nc2nccc(-c3cn(C)c4ccccc34)n2)c(OC)cc1N(C)CCN(C)C` + CCn1c(-c2cc(N3CCN(C)CC3)cnc2C(C)OC)c2c3cc(ccc31)-c1csc(n1)CC(NC(=O)C1CC1C)C(=O)N1CCCC(N1)C(=O)OCC(C)(C)C2, the IC50 (second compound 0.000949 µM) was under 0.00316 µM, the IC50 (second compound 0.003 µM) was under 0.00316 µM and the IC50 (second compound 0.00949 µM) was under 0.00316 µM. It also gave an IC50 (second compound 0.03 µM) of under 0.00316 µM, an IC50 (second compound 0.0949 µM) of under 0.00316 µM and an IC50 (second compound 0.3 µM) of under 0.00316 µM. For the same compound, the viability, T/C [1] was 51.5%, the viability, T/C [2] was 45.7% and the viability, T/C [3] was 34.4%. It also gave a viability, T/C [4] of 50.4%, a viability, T/C [5] of 31.4% and a viability, T/C [6] of 27.6%. The viability, T/C [7] was 35.8%, the viability, T/C [8] was 32.6% and the viability, T/C [9] was 30.1%. It also gave a viability, T/C [10] of 29.8%, a viability, T/C [11] of 27.1% and a viability, T/C [12] of 19%. For the same compound, the viability, T/C [13] was 30.7%, the viability, T/C [14] was 27.9% and the viability, T/C [15] was 29.3%. For the same compound, the viability, T/C [16] was 25.4%, the viability, T/C [17] was 22.1% and the viability, T/C [18] was 15.6%. It also gave a viability, T/C [19] of 27.5%, a viability, T/C [20] of 23.6% and a viability, T/C [21] of 29.1%. The viability, T/C [22] was 25%, the viability, T/C [23] was 17.5% and the viability, T/C [24] was 15%. It also gave a viability, T/C [25] of 18.7%, a viability, T/C [26] of 19.6% and a viability, T/C [27] of 22.2%. For the same compound, the viability, T/C [28] was 16.4%, the viability, T/C [29] was 8.97% and the viability, T/C [30] was 12.2%. The viability, T/C [31] was 16.5%, the viability, T/C [32] was 18.1% and the viability, T/C [33] was 17.2%. For the same compound, the viability, T/C [34] was 12.3%, the viability, T/C [35] was 10.5% and the viability, T/C [36] was 11.8%.
With `CC(C)NCC(C(=O)N1CCN(c2ncnc3c2C(C)CC3O)CC1)c1ccc(Cl)cc1` (stereo not drawn) + CCn1c(-c2cc(N3CCN(C)CC3)cnc2C(C)OC)c2c3cc(ccc31)-c1csc(n1)CC(NC(=O)C1CC1C)C(=O)N1CCCC(N1)C(=O)OCC(C)(C)C2 the IC50 (second compound 0.000949 µM) was under 0.0316 µM, the IC50 (second compound 0.003 µM) was under 0.0316 µM and the IC50 (second compound 0.00949 µM) was under 0.0316 µM. The IC50 (second compound 0.03 µM) was under 0.0316 µM, the IC50 (second compound 0.0949 µM) was under 0.0316 µM and the IC50 (second compound 0.3 µM) was under 0.0316 µM. The viability, T/C [3] was 44%, the viability, T/C [4] was 47.4% and the viability, T/C [5] was 32.9%. For the same compound, the viability, T/C [6] was 34.7%, the viability, T/C [37] was 26.2% and the viability, T/C [38] was 15.2%. For the same compound, the viability, T/C [9] was 37.9%, the viability, T/C [10] was 27.3% and the viability, T/C [11] was 24.2%. It also gave a viability, T/C [12] of 22.6%, a viability, T/C [39] of 22% and a viability, T/C [40] of 13.8%. The viability, T/C [15] was 30.8%, the viability, T/C [16] was 31.7% and the viability, T/C [17] was 30.4%. It also gave a viability, T/C [18] of 22.2%, a viability, T/C [41] of 17.1% and a viability, T/C [42] of 10.4%. It also gave a viability, T/C [21] of 29.5%, a viability, T/C [22] of 23.8% and a viability, T/C [23] of 21.5%. The viability, T/C [24] was 19.6%, the viability, T/C [43] was 12.1% and the viability, T/C [44] was 12.1%. The viability, T/C [27] was 18.6%, the viability, T/C [28] was 18.6% and the viability, T/C [29] was 17.8%. It also gave a viability, T/C [30] of 17.4%, a viability, T/C [45] of 10.3% and a viability, T/C [46] of 9.96%. It also gave a viability, T/C [33] of 18.1%, a viability, T/C [34] of 15.7% and a viability, T/C [35] of 14.9%. For the same compound, the viability, T/C [36] was 10.6%, the viability, T/C [47] was 9.62% and the viability, T/C [48] was 9.02%.
`CC(Nc1ccc2c(c1)OCCn1cc(N3C(=O)OCC3C(F)F)nc1-2)C(N)=O` (stereo not drawn) + CCn1c(-c2cc(N3CCN(C)CC3)cnc2C(C)OC)c2c3cc(ccc31)-c1csc(n1)CC(NC(=O)C1CC1C)C(=O)N1CCCC(N1)C(=O)OCC(C)(C)C2 gave an IC50 (second compound 0.000949 µM) of under 0.0316 µM, an IC50 (second compound 0.003 µM) of under 0.0316 µM and an IC50 (second compound 0.00949 µM) of under 0.0316 µM. It also gave an IC50 (second compound 0.03 µM) of under 0.0316 µM, an IC50 (second compound 0.0949 µM) of under 0.0316 µM and an IC50 (second compound 0.3 µM) of under 0.0316 µM. It also gave a viability, T/C [3] of 38.9%, a viability, T/C [4] of 34.7% and a viability, T/C [5] of 29.4%. The viability, T/C [6] was 35.1%, the viability, T/C [37] was 33.6% and the viability, T/C [38] was 21.6%. The viability, T/C [9] was 34.9%, the viability, T/C [10] was 24.6% and the viability, T/C [11] was 25.3%. The viability, T/C [12] was 25.1%, the viability, T/C [39] was 23.1% and the viability, T/C [40] was 17.6%. For the same compound, the viability, T/C [15] was 31.1%, the viability, T/C [16] was 24.5% and the viability, T/C [17] was 21.1%. It also gave a viability, T/C [18] of 22.5%, a viability, T/C [41] of 23.3% and a viability, T/C [42] of 16.7%. For the same compound, the viability, T/C [21] was 25.5%, the viability, T/C [22] was 19.6% and the viability, T/C [23] was 19%. The viability, T/C [24] was 19.2%, the viability, T/C [43] was 13.9% and the viability, T/C [44] was 14.5%. It also gave a viability, T/C [27] of 16.9%, a viability, T/C [28] of 14.9% and a viability, T/C [29] of 13.6%. The viability, T/C [30] was 15.2%, the viability, T/C [45] was 10% and the viability, T/C [46] was 10.8%. For the same compound, the viability, T/C [33] was 14%, the viability, T/C [34] was 13.3% and the viability, T/C [35] was 12.8%. The viability, T/C [36] was 13%, the viability, T/C [47] was 11.9% and the viability, T/C [48] was 11.4%.
Work on `O=C(c1ccc(F)c(F)c1Nc1ccc(I)cc1F)N1CC(O)([C@@H]2CCCCN2)C1` + CCn1c(-c2cc(N3CCN(C)CC3)cnc2C(C)OC)c2c3cc(ccc31)-c1csc(n1)CC(NC(=O)C1CC1C)C(=O)N1CCCC(N1)C(=O)OCC(C)(C)C2 yielded an IC50 (second compound 0.000949 µM) of under 0.00316 µM, an IC50 (second compound 0.003 µM) of under 0.00316 µM and an IC50 (second compound 0.00949 µM) of under 0.00316 µM. For the same compound, the IC50 (second compound 0.03 µM) was under 0.00316 µM, the IC50 (second compound 0.0949 µM) was under 0.00316 µM and the IC50 (second compound 0.3 µM) was under 0.00316 µM. It also gave a viability, T/C [1] of 40.8%, a viability, T/C [2] of 42.1% and a viability, T/C [3] of 30.3%. For the same compound, the viability, T/C [4] was 27.7%, the viability, T/C [5] was 14.7% and the viability, T/C [6] was 7.09%. It also gave a viability, T/C [7] of 31.5%, a viability, T/C [8] of 33.4% and a viability, T/C [9] of 22.9%. It also gave a viability, T/C [10] of 20.1%, a viability, T/C [11] of 10.2% and a viability, T/C [12] of 5.97%. For the same compound, the viability, T/C [13] was 33.3%, the viability, T/C [14] was 20.2% and the viability, T/C [15] was 19%. For the same compound, the viability, T/C [16] was 10.2%, the viability, T/C [17] was 5.94% and the viability, T/C [18] was 5.43%. It also gave a viability, T/C [19] of 24%, a viability, T/C [20] of 15.2% and a viability, T/C [21] of 10.5%. For the same compound, the viability, T/C [22] was 7.97%, the viability, T/C [23] was 5.26% and the viability, T/C [24] was 5.71%. For the same compound, the viability, T/C [25] was 16.1%, the viability, T/C [26] was 11.9% and the viability, T/C [27] was 8.79%. For the same compound, the viability, T/C [28] was 6.35%, the viability, T/C [29] was 5.88% and the viability, T/C [30] was 5.06%. It also gave a viability, T/C [31] of 12.4%, a viability, T/C [32] of 9.36% and a viability, T/C [33] of 8.61%. It also gave a viability, T/C [34] of 5.57%, a viability, T/C [35] of 5.66% and a viability, T/C [36] of 6.36%.
